Assay results taken from patent publication US5980913A, “Peptides having immunomodulatory activity” (Biochem Pharma, Inc., priority 1994, dated 1999).
Where a SMILES comes first, the peptide text is derived from it. [ ]: non-standard residue; d: D form.

What was measured:
B cells = experiment: Activation of B cells by mitogenic proliferation (LPS, PWM); assay type: cell-based, C57BL/6 mice
Source text: c) Activation of T or B cells by Mitogenic Proliferation
A mitogenic lectin (mitogen) is a glycoprotein which binds and cross-links specific cells surface carbohydrate determinants, and will polyclonally stimulate lymphoid cells. Lymphocyte activation by either antigens or mitogens results in intracellular changes and the subsequent development into a lymphoblast. Mitogenic stimulation of lymphocytes in vitro is believed to mimic the series of events which occur in vivo following their stimulation by specific antigens. PHA and ConA; PWM and LPS mitogens can be used as a measurement of T cell and B cell activity, respectively. Briefly, the spleen mononuclear leukocytes from C57BL/6 mice are incubated in the presence or absence of mitogens with or without candidate drugs. After 72 hours or 5 days, ^3 H-thymidine incorporation is recorded as an indication of cell proliferation.
Lymphocytes were isolated from mice spleen or human blood in accordance to methods well known in the art. 100 μl of cell suspension of 2×10^6 cells/ml was added per well (2x10^5 cells/well) and incubated in the presence of lectin at the following concentrations:
PWM=0.2 to 0.02% final concentration
Cells were incubated for 3 days with PHA or ConA, or 5 days with PWM or LPS. 1 μCi of tritiated thymidine was added to each well for the last 6 hours (or 0.5 μCi for 18 hrs). The cells were harvested in a cell Harvester (Tortech®) and counted in a Beta counter.

[1] = tested on: C57BL/6 lymphocytes with irradiated DBA/2 cells; experiment: Mixed lymphocyte reaction (MLR), 3H thymidine uptake; assay type: cell-based, mice
Source text: 1. Cytotoxic T Lymphocytes (CTL) Mixed Lymphocyte Reaction (MLR) and Mitogenic Response Assays
The protocols used are described in Hudson L., Haay F., Pratical immunology, 3rd edition, Blackwell, Scientific publications, Oxford 1989, p. 158-162, and p.447.
Lymphocytes were isolated from C57BL/6 mice and DBA/2 mice in accordance to techniques well known in the art. Cell concentration was adjusted to 10×10^6 cell/ml for each assay. The cells isolated from DBA/2 mice were irradiated with 3000 Rads.
In a 6 well plate, each well was set up with:
The cells were incubated for five days at 37° C. in 5% CO2, after which CTL and MLR assays were performed.
b) Mixed Lymphocyte Reaction (MLR)
Mixed lymphocyte reaction is an in vitro counterpart of the allograft rejection. Briefly, lymphocyte activation (mitotic response) is obtained when cells from two inbred strains or from two outbred individuals of any species are mixed in in vitro culture. To have a unidirectional response, the proliferation of either cell type may be blocked with X-ray irradiation or mitomycin C treatment. After 4 days incubation, ^3 H thymidine uptake and cytotoxicity assays (CTL) were performed. The cells were then resuspended and 100 μl of cell suspension was deposited in each well of a 96 well plate. 1 μCi of tritiated thymidine was added for 6 hours. After incubation, the cells were then harvested and counted using a Microbeta counter.

[2] = concentration not given, 0 not defined

Row | SMILES | Activation of B Cells, PWM (B cells; 10^-6 - 10^-4 M) | Activation of B Cells, LPS (B cells; 10^-10 - 10^-4 M) | stimulation of B cells in vitro (in words) (B cells; summary of Table 1) | MLR [1, 2] | Activation of B Cells, LPS (B cells; [2]) | Activation of B Cells, PWM (B cells; [2]) | MLR ([1]; 10^-7 M) [×]
1 | NCCCC[C@H](N)C(=O)N[C@@H](CC(N)=O)C(=O)N1CCC[C@H]1C(=O)N[C@@H](Cc1ccc(O)cc1)C(=O)O [PEPTIDE #1, H-Lys-Asn-Pro-Tyr-OH] (H-KNPY-OH) | 1.7 - 4 × | 1.9 - 3.6 × | stimulates CTL's and B cells | 0 | – | – | –
2 | NCCCC[C@@H](N)C(=O)N[C@@H](CC(N)=O)C(=O)N1CCC[C@H]1C(=O)N[C@@H](Cc1ccc(O)cc1)C(=O)O [PEPTIDE #5, H-(D-Lys)-Asn-Pro-Tyr-OH] (H-[dK]NPY-OH) | – | – | – | – | 0 | 0 | 2.1
